One assay has as its target muscarinic binding site. As to the kind of experiment: inhibition of specific binding at the muscarinic binding site. On the procedure:
The compounds were assayed at one or more concentrations in each binding assay.

The subject of another assay is rats. As to the kind of experiment: reversal of retrograde amnesia in rats produced by electroconvulsive shock treatment. Format: in vivo, rat (Charles River CD strain). More on the design: reversal of retrograde amnesia (Table C): scale not given here. How it is done: Several representative compounds of the present invention were also assayed in an in vivo test designed to assess the ability of the compounds to reverse retrograde amnesia in rats produced by electroconvulsive shock treatment. Activity of a compound in this test is indicative of potential cognition activating activity in human patients suffering from impaired cognitive function.
In the test, groups of fifty weanling rats (Charles River CD strain) are randomly divided into five sub-groups of ten rats each. The rats are trained by placing them in a highly illuminated 6 inch by 8 inch box which opens into a darkened 8 inch by 12 inch chamber having electrified grids. Initially, rats move freely from the illuminated compartment to the darkened chamber through a 4 inch by 4 inch doorway.
When a rat has all four feet within the darkened chamber, the floor of the darkened chamber is electrified and the rat is electrically shocked until it exits to the original illuminated area. If a rat reenters the darkened chamber before one minute has elapsed, it again receives a mild foot shock until it exits to the illuminated area. When the rat remains in the illuminated area for a period of one minute, it is removed and placed in a group holding cage.
Two hours after the above training, the rats are given a single 20 ma electroconvulsive shock of 1 second duration and immediately returned to the holding cage.
Two hours after the delivery of the shock, the rats are administered the test compound orally, or intraperitoneally or intramuscularly for special tests.
One hour after treatment with the test compound, the rats are tested for retention of the avoidance response. This is accomplished by placing a drug-treated rat in the illuminated area of the test chamber. […] Any rat entering the darkened chamber within sixty seconds is designated as having amnesia for this response.
The five sub-groups of ten rats each were treated as follows:
A 50% difference between the baseline and ceiling control groups was required to evaluate a particular test compound. If a difference of less than 50% was observed, the results of that particular experiment were discarded.
Under the test conditions, a difference of this magnitude is statistically significant using the multinomial expansion of the statistical chi-square test.

Assay [1] concerns patients clinically diagnosed as having presenile primary degenerative dementia. The conditions noted are these: double blind study, Christie et al. (1981); cited from earlier work.

The source of these data is patent US4745123A, “Substituted tetrahydro-3-pyridine-carboxylic acid, ester, and amide cholinergic agents” (priority 1986, dated 1988).

The IC50 is the concentration that gives 50% inhibition.

SMILES strings stand for the structures.

Molecule `CCCN1CCC(c2ccccc2)=C(C(=O)OC)C1` [Example 22, 1,2,5,6-Tetrahydro-4-phenyl-1-propyl-3-pyridinecarboxylic acid, methyl ester] showed an IC50 on muscarinic binding site of 6.5 µM. For the same molecule, the “active (A) / inactive (N), reversal of retrograde amnesia” value (from here on “active (A) / inactive (N), reversal”) in the assay on rats (0.01 mg/kg) is “A ("active" (A) if the difference between the numbers of animals in the drug and control groups reentering the darkened chamber was equal or greater than three out of ten)”; with rats (0.1 mg/kg), “A ("active" (A) if the difference between the numbers of animals in the drug and control groups reentering the darkened chamber was equal or greater than three out of ten)”; in the assay on rats (1.0 mg/kg) it was “A ("active" (A) if the difference between the numbers of animals in the drug and control groups reentering the darkened chamber was equal or greater than three out of ten)”. Moreover, the “reversal of retrograde amnesia (Table C)” value in the assay with rats (0.01 mg/kg) stood at 57; with rats (0.1 mg/kg) it was 81; in the assay with rats (1.0 mg/kg), 57.
On to `CCN1CCC(c2ccccc2)=C(C(=O)OCc2ccccc2)C1` [Example 1], for which the IC50 on muscarinic binding site was determined as 0.31 µM. Further, the “active (A) / inactive (N), reversal” value with rats (0.01 mg/kg) is “N (if less than three, the test compound was considered "inactive" (N))”; in the assay on rats (0.1 mg/kg), “N (if less than three, the test compound was considered "inactive" (N))”; with rats (1.0 mg/kg), “N (if less than three, the test compound was considered "inactive" (N))”. The “reversal of retrograde amnesia (Table C)” value in the assay with rats (0.01 mg/kg) is 40; in the assay with rats (0.1 mg/kg) it was 20; with rats (1.0 mg/kg), 40.
In the case of `COC(=O)C1CN(C)CC=C1c1ccccc1` (racemic) [Example 63, (±)-1,2,3,6-tetrahydro-1-methyl-4-phenyl-3-pyridinecarboxylic acid, methyl ester], at muscarinic binding site, the IC50 was determined as 3.64 µM. Also, the “active (A) / inactive (N), reversal” value in the assay on rats (0.01 mg/kg) was “A ("active" (A) if the difference between the numbers of animals in the drug and control groups reentering the darkened chamber was equal or greater than three out of ten)”; with rats (0.1 mg/kg), “N (if less than three, the test compound was considered "inactive" (N))”; in the assay on rats (1.0 mg/kg), “A ("active" (A) if the difference between the numbers of animals in the drug and control groups reentering the darkened chamber was equal or greater than three out of ten)”. Further, the “reversal of retrograde amnesia (Table C)” value is 50 in the assay on rats (0.01 mg/kg), 17 with rats (0.1 mg/kg) and 50 in the assay with rats (1.0 mg/kg).
With `COC(=O)C1=CCCN(C)C1` [Arecoline, methyl ester of 1,2,5,6-tetrahydro-1-methyl-3-pyridinecarboxylic acid, reference compound], the IC50 on muscarinic binding site came out at 1.1 µM. The “test of picture recognition” value in assay [1] is given as “Significant improvement”.
